Columns and labels:
Assay in all cases: Kinase Profiling (KINOMEscan)
Assay type in all cases: binding
[1] = molecular target: 456 kinases (of these 395 non-mutant kinases) (Homo sapiens, UniProt Q8TBX8); conditions: PIP5K2C; 10 μM
[2] = molecular target: 456 kinases (of these 395 non-mutant kinases) (Homo sapiens, UniProt P31751); conditions: AKT2; 10 μM
[3] = molecular target: 456 kinases (of these 395 non-mutant kinases) (Homo sapiens, UniProt P49759); conditions: CLK1; 10 μM
[4] = molecular target: 456 kinases (of these 395 non-mutant kinases) (Homo sapiens, UniProt P11362); conditions: FGFR1; 10 μM
[5] = molecular target: 456 kinases (of these 395 non-mutant kinases) (Homo sapiens, UniProt O14965); conditions: AURKA; 10 μM
[6] = molecular target: 456 kinases (of these 395 non-mutant kinases) (Homo sapiens, UniProt P36896); conditions: ACVR1B; 10 μM
456 kinases (of these 395 non-mutant kinases) (Homo sapiens, UniProt P36896), sequence (P36896 24-505 limits assumed, stated change not applied): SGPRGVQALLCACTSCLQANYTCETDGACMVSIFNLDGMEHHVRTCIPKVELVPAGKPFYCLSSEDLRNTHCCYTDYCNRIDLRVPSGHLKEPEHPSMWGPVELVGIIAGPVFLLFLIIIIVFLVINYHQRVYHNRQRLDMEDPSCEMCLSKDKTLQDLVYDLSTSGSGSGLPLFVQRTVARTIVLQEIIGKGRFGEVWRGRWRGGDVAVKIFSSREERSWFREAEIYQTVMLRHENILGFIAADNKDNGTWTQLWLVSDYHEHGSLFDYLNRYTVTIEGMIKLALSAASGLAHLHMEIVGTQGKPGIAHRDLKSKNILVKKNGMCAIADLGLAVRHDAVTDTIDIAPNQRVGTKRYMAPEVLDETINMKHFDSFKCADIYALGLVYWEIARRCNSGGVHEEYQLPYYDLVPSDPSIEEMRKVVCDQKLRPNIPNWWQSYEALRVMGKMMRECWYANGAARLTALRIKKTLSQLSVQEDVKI

[7] = molecular target: 456 kinases (of these 395 non-mutant kinases) (Homo sapiens, UniProt P00519, H396P); conditions: 10 μM
[8] = molecular target: 456 kinases (of these 395 non-mutant kinases) (Homo sapiens, UniProt O00238); conditions: BMPR1B; 10 μM
456 kinases (of these 395 non-mutant kinases) (Homo sapiens, UniProt O00238), sequence (O00238 14-502 limits assumed, stated change not applied): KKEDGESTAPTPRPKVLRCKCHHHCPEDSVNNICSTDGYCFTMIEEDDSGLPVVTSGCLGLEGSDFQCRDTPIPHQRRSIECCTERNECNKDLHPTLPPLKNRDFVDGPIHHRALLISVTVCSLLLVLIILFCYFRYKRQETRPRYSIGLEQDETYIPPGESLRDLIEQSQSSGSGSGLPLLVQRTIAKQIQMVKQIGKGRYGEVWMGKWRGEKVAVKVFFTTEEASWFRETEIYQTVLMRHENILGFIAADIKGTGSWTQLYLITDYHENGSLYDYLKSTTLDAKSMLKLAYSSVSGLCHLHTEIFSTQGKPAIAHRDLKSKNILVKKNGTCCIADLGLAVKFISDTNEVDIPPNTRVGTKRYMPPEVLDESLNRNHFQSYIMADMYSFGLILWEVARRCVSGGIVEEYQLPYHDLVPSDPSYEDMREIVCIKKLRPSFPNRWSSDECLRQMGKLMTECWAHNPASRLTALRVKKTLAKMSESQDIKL

[9] = molecular target: 456 kinases (of these 395 non-mutant kinases) (Homo sapiens, UniProt P36888, R834Q); conditions: FLT3(R834Q); 10 μM
[10] = molecular target: 456 kinases (of these 395 non-mutant kinases) (Homo sapiens, UniProt P27037); conditions: ACVR2A; 10 μM
456 kinases (of these 395 non-mutant kinases) (Homo sapiens, UniProt P27037), sequence (P27037 20-513 limits assumed, change not shown): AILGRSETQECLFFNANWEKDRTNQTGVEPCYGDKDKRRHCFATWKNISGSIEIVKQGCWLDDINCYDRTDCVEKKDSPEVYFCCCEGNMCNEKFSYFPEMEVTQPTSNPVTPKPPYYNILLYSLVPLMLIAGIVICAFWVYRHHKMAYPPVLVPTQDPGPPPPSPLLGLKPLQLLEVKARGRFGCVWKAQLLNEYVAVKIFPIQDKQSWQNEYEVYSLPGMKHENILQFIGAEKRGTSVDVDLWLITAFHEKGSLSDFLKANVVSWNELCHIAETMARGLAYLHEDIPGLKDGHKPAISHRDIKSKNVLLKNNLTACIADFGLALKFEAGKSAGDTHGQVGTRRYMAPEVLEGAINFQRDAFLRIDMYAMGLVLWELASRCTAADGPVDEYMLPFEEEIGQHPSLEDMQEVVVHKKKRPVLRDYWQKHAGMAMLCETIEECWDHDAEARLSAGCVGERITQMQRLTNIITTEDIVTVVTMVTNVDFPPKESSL

[11] = molecular target: 456 kinases (of these 395 non-mutant kinases) (Homo sapiens, UniProt Q08345); conditions: DDR1; 10 μM
456 kinases (of these 395 non-mutant kinases) (Homo sapiens, UniProt Q08345), sequence (Q08345 19-913 limits assumed, change not shown): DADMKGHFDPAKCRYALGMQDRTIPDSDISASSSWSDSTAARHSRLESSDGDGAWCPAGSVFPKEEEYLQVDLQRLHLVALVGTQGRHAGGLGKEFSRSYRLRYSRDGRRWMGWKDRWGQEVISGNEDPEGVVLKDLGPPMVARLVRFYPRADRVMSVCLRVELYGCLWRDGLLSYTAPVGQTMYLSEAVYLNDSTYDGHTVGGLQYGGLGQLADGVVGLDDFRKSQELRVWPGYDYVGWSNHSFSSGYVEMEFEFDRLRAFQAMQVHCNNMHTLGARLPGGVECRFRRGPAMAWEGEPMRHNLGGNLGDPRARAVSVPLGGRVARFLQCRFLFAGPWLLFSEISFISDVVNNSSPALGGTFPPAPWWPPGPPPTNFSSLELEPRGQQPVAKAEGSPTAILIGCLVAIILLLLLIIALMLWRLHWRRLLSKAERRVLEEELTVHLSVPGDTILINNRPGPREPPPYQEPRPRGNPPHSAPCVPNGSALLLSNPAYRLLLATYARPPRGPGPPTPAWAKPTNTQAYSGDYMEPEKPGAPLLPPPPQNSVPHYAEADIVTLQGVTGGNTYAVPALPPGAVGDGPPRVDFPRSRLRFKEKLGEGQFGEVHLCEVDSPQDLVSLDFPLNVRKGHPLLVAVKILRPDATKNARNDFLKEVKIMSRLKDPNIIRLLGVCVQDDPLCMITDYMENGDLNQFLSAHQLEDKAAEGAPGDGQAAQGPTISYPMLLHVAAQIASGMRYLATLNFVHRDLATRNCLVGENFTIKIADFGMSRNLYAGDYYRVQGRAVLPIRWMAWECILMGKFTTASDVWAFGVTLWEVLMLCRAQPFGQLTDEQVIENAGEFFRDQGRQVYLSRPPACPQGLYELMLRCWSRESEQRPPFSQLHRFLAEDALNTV

[12] = molecular target: 456 kinases (of these 395 non-mutant kinases) (Homo sapiens, UniProt Q8NI60); conditions: ADCK3; 10 μM
456 kinases (of these 395 non-mutant kinases) (Homo sapiens, UniProt Q8NI60), sequence (Q8NI60 163-647 limits assumed, stated change not applied): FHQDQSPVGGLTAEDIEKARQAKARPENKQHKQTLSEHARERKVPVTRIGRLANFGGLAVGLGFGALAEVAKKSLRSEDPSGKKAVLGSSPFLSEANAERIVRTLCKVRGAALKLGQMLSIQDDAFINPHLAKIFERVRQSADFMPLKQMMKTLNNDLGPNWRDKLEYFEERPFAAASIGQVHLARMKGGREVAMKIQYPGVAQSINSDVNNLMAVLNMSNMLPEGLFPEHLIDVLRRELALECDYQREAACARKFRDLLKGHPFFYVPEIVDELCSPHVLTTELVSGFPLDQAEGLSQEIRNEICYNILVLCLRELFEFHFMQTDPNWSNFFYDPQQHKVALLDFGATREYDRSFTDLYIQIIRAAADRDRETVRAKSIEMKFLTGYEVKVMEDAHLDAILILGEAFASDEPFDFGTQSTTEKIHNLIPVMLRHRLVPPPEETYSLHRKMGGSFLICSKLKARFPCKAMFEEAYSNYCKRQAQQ

[13] = molecular target: 456 kinases (of these 395 non-mutant kinases) (Homo sapiens, UniProt P36888, K663Q); conditions: FLT3(K663Q); 10 μM
[14] = molecular target: 456 kinases (of these 395 non-mutant kinases) (Homo sapiens, UniProt Q13470); conditions: TNK1; 10 μM
[15] = molecular target: 456 kinases (of these 395 non-mutant kinases) (Homo sapiens, UniProt P51813); conditions: BMX; 10 μM
[16] = molecular target: 456 kinases (of these 395 non-mutant kinases) (Homo sapiens, UniProt O95382); conditions: ASK2; 10 μM
[17] = molecular target: 456 kinases (of these 395 non-mutant kinases) (Homo sapiens, UniProt P52333); conditions: JAK3(JH1domain-catalytic); 10 μM
[18] = molecular target: 456 kinases (of these 395 non-mutant kinases) (Homo sapiens, UniProt Q92630); conditions: DYRK2; 10 μM
[19] = molecular target: 456 kinases (of these 395 non-mutant kinases) (Homo sapiens, UniProt P23443); conditions: S6K1; 10 μM
[20] = molecular target: 456 kinases (of these 395 non-mutant kinases) (Homo sapiens, UniProt P00533, G719S); conditions: EGFR(G719S); 10 μM
[21] = molecular target: 456 kinases (of these 395 non-mutant kinases) (Homo sapiens, UniProt P48736); conditions: PIK3CG; 10 μM
[22] = molecular target: 456 kinases (of these 395 non-mutant kinases) (Homo sapiens, UniProt P29323); conditions: EPHB2; 10 μM
[23] = molecular target: 456 kinases (of these 395 non-mutant kinases) (Homo sapiens, UniProt Q8IVW4); conditions: CDKL3; 10 μM
[24] = molecular target: 456 kinases (of these 395 non-mutant kinases) (Homo sapiens, UniProt Q8TD19); conditions: NEK9; 10 μM
[25] = molecular target: 456 kinases (of these 395 non-mutant kinases) (Homo sapiens, UniProt O00141); conditions: SGK; 10 μM
[26] = molecular target: 456 kinases (of these 395 non-mutant kinases) (Homo sapiens, UniProt P36894); conditions: BMPR1A; 10 μM
456 kinases (of these 395 non-mutant kinases) (Homo sapiens, UniProt P36894), sequence (P36894 24-532 limits assumed, change not shown): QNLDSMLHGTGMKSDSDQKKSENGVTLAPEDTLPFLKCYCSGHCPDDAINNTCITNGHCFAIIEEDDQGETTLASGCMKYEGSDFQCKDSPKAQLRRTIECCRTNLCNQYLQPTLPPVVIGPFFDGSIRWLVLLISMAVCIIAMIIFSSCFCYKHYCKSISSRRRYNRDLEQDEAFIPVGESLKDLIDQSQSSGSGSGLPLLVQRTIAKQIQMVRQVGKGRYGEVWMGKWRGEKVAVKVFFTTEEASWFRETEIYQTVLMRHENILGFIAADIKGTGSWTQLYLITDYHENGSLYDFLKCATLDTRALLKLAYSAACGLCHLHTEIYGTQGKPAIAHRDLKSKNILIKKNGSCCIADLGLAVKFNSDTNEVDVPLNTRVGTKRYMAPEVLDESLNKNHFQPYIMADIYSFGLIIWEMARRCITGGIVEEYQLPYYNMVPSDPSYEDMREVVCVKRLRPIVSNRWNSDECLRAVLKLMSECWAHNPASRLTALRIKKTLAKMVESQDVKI

[27] = molecular target: 456 kinases (of these 395 non-mutant kinases) (Homo sapiens, UniProt P07333); conditions: 10 μM
456 kinases (of these 395 non-mutant kinases) (Homo sapiens, UniProt P07333), sequence (P07333 20-972 limits assumed, change not shown): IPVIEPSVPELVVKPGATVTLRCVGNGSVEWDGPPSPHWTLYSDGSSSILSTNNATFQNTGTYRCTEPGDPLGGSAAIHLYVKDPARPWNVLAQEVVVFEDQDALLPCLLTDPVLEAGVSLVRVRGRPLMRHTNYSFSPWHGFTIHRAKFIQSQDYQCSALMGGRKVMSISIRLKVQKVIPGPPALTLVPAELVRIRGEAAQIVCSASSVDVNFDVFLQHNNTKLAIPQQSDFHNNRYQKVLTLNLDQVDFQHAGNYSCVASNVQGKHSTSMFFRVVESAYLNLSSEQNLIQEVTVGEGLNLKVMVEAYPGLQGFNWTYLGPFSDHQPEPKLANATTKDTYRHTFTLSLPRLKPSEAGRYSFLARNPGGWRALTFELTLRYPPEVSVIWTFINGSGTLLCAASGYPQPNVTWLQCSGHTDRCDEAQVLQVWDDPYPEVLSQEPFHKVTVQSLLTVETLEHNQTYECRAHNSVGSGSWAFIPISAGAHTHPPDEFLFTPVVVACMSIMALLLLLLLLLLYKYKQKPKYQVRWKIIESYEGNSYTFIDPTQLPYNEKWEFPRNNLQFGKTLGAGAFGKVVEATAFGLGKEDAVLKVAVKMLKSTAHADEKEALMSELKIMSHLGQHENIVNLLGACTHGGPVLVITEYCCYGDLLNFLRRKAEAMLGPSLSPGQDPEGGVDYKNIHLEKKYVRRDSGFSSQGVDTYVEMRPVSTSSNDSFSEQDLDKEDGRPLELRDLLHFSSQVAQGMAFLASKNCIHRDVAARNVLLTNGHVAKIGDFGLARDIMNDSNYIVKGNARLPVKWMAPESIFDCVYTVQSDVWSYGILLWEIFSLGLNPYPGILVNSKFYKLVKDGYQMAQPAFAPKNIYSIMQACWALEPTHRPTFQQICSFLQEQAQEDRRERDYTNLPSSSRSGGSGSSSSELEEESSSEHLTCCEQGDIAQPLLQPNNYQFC

[28] = molecular target: 456 kinases (of these 395 non-mutant kinases) (Homo sapiens, UniProt O14936); conditions: CASK; 10 μM
[29] = molecular target: 456 kinases (of these 395 non-mutant kinases) (Homo sapiens, UniProt Q8N752); conditions: CSNK1A1L; 10 μM
[30] = molecular target: 456 kinases (of these 395 non-mutant kinases) (Homo sapiens, UniProt P08581, M1250T); conditions: MET(M1250T); 10 μM
[31] = molecular target: 456 kinases (of these 395 non-mutant kinases) (Homo sapiens, UniProt P51617); conditions: IRAKI; 10 μM

456 kinases (of these 395 non-mutant kinases) (Homo sapiens, UniProt Q8TBX8), sequence (Q8TBX8 2-421 limits assumed, change not shown): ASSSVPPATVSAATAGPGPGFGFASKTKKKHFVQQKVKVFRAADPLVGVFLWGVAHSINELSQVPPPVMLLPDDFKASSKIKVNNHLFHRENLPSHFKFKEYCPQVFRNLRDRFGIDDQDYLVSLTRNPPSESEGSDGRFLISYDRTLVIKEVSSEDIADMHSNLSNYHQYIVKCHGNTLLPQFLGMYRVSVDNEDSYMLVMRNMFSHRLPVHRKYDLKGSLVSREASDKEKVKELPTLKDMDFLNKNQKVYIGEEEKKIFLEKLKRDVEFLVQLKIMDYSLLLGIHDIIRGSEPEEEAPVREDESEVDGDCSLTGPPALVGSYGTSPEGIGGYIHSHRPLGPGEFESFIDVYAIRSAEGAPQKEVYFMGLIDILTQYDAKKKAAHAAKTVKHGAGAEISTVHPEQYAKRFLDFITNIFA

## CCc1ccccc1NC(=O)c1c(C)nsc1Nc1cnc2cc(F)ccc2n1 [Example 20, N-(2-Ethylphenyl)-5-[(6-fluoroquinoxalin-2-yl)amino]-3-methyl-1,2-thiazole-4-carboxamide]
[1]
  % Ctrl @ 10 μM: 100 % Ctrl
[2]
  % Ctrl @ 10 μM: 90 % Ctrl
[3]
  % Ctrl @ 10 μM: 58 % Ctrl
[4]
  % Ctrl @ 10 μM: 94 % Ctrl
[5]
  % Ctrl @ 10 μM: 100 % Ctrl
[6]
  % Ctrl @ 10 μM: 100 % Ctrl
[7]; ABL1(H396P)-nonphosphorylated
  % Ctrl @ 10 μM: 100 % Ctrl
[7]; ABL1(H396P)-phosphorylated
  % Ctrl @ 10 μM: 92 % Ctrl
[8]
  % Ctrl @ 10 μM: 95 % Ctrl
[9]
  % Ctrl @ 10 μM: 93 % Ctrl
[10]
  % Ctrl @ 10 μM: 94 % Ctrl
[11]
  % Ctrl @ 10 μM: 77 % Ctrl
[12]
  % Ctrl @ 10 μM: 64 % Ctrl
[13]
  % Ctrl @ 10 μM: 75 % Ctrl
[14]
  % Ctrl @ 10 μM: 86 % Ctrl
[15]
  % Ctrl @ 10 μM: 95 % Ctrl
[16]
  % Ctrl @ 10 μM: 73 % Ctrl
[17]
  % Ctrl @ 10 μM: 82 % Ctrl
[18]
  % Ctrl @ 10 μM: 96 % Ctrl
[19]
  % Ctrl @ 10 μM: 100 % Ctrl
[20]
  % Ctrl @ 10 μM: 97 % Ctrl
[21]
  % Ctrl @ 10 μM: 99 % Ctrl
[22]
  % Ctrl @ 10 μM: 77 % Ctrl
[23]
  % Ctrl @ 10 μM: 66 % Ctrl
[24]
  % Ctrl @ 10 μM: 78 % Ctrl
[25]
  % Ctrl @ 10 μM: 100 % Ctrl
[26]
  % Ctrl @ 10 μM: 100 % Ctrl
[27]; CSF1R-autoinhibited
  % Ctrl @ 10 μM: 91 % Ctrl
[27]; CSF1R
  % Ctrl @ 10 μM: 100 % Ctrl
[28]
  % Ctrl @ 10 μM: 87 % Ctrl
[29]
  % Ctrl @ 10 μM: 100 % Ctrl
[30]
  % Ctrl @ 10 μM: 100 % Ctrl
[31]
  % Ctrl @ 10 μM: 100 % Ctrl

— US9682995B2, “Amino-substituted isothiazoles” (BAYER PHARMA AKTIENGESELLSCHAFT, priority 2013, dated 2017)
